# Test results taken from paper PMC4138103 (PLoS ONE, 2014).
# Test system: Sprague-Dawley rats
# Assay: Organ weights
# Format: in vivo, Rattus norvegicus
# Procedure: At the end of the treatment period (males on study day 28–31, females on study day 28–32) the rats were anesthetized with CO2/O2 (70/30%). Blood samples were drawn from the left ventricle using Venoject needles (Terumo) and Vacuette EDTA and serum blood collection tubes, and the rats were killed by exsanguination. EDTA blood was used for hematology investigations (see below). Serum was separated, divided into aliquots, frozen in liquid nitrogen and stored at −70°C for further analysis (see below). A complete necropsy (macroscopic observations, tissue sampling for molecular biology, biochemistry, histopathology, analytical chemistry and organ weights) was performed on each rat. The weights of the following organs were recorded: adrenals, brain, epididymides, heart, kidneys, liver, lungs, ovaries, pituitary, prostate (ventral), seminal vesicles, spleen, testes, thymus, thyroids (with parathyroids) and uterus. For molecular biology and biochemical analyses samples from brain, liver, kidney, bones, and several other tissues were snap frozen in liquid nitrogen and stored at −80°C for further analysis. […] Tissue samples for histopathology were preserved in 10% neutral buffered formalin except testis and epididymis, which were fixed in Bouin's solution for 24 h after which they were transferred into 70% ethanol.
# Data were also analyzed using the BMD method, which is based on dose-response modeling of the full data set using a nested family of exponential and Hill models. The analyses were done on data of males and females combined, using sex as a covariate. […] In that case, different Critical Effect Doses (CEDs) and CEDs at the lowest bound of the confidence interval (CED-L) were generated for each sex. If no difference between sexes is detected, a CED and CED-Ls for the combined data is generated. However, this was also done if the curve fits are close, and separate analyses for males and females were then performed manually. CEDs and CED-Ls were calculated at the predefined Critical Effect Size (CES) of 5% (EFSA standard) or 10%.
# [1] = females, total dose 1000 mg/kg bw, group mean
# [2] = females, total dose 1700 mg/kg bw, group mean
# [3] = males, CES 5%, total dose based
# [4] = males, CES 10%, total dose based
# [5] = males, adipose tissue concentration based
# [6] = males, total dose 3 mg/kg bw, group mean
# [7] = males, total dose 10 mg/kg bw, group mean
# [8] = males, total dose 30 mg/kg bw, group mean
# [9] = males, total dose 100 mg/kg bw, group mean
# [10] = males, total dose 300 mg/kg bw, group mean
# [11] = males, total dose 1000 mg/kg bw, group mean
# [12] = males, total dose 1700 mg/kg bw, group mean
smiles,measurement,setting,value
"Clc1cc(Cl)c(-c2cc(Cl)c(Cl)c(Cl)c2Cl)cc1Cl [PCB 180, 2,2′,3′,4,4′,5,5′-heptachlorobiphenyl]","Organ weight, Spleen",[1],0.700 g
same,"Organ weight, Thymus",[1],0.528 g
same,"Organ weight, Thyroid gland",[1],0.0158 g
same,"Organ weight, Uterus",[1],0.374 g
same,"Organ weight, Adrenals",[2],0.0657 g
same,"Organ weight, Brain",[2],1.60 g
same,"Organ weight, Heart",[2],0.900 g
same,"Organ weight, Kidneys",[2],1.40 g
same,"Organ weight, Ovaries",[2],0.102 g
same,"Organ weight, Pituitary",[2],0.0108 g
same,"Organ weight, Spleen",[2],0.664 g
same,"Organ weight, Thymus",[2],0.560 g
same,"Organ weight, Thyroid gland",[2],0.0160 g
same,"Organ weight, Uterus",[2],0.366 g
same,"Dose response, Thyroid gland weight","males, total dose 0-1700 mg/kg bw","D, T"
same,"Liver weight, CED",[3],11.6 mg/kg bw
same,"Liver weight, CED-L",[3],5.48 mg/kg bw
same,"Thyroid gland weight, CED",[3],239 mg/kg bw
same,"Thyroid gland weight, CED-L",[3],168 mg/kg bw
same,"Liver weight, CED",[4],24.2 mg/kg bw
same,"Liver weight, CED-L",[4],11.4 mg/kg bw
same,"Thyroid gland weight, CED",[4],467 mg/kg bw
same,"Thyroid gland weight, CED-L",[4],328 mg/kg bw
same,"Liver weight, CED",[5],42.3 µg/g lipid
same,"Thyroid weight, CED",[5],1030 µg/g lipid
same,"Organ weight, Adrenals",[6],0.0472 g
same,"Organ weight, Brain",[6],1.65 g
same,"Organ weight, Epididymides",[6],0.972 g
same,"Organ weight, Heart",[6],1.27 g
same,"Organ weight, Kidneys",[6],2.00 g
same,"Organ weight, Pituitary",[6],0.0091 g
same,"Organ weight, Seminal vesicles",[6],0.915 g
same,"Organ weight, Spleen",[6],0.828 g
same,"Organ weight, Testis L",[6],1.82 g
same,"Organ weight, Testis R",[6],1.82 g
same,"Organ weight, Thymus",[6],0.632 g
same,"Organ weight, Thyroid gland",[6],0.0210 g
same,"Organ weight, Ventral prostate",[6],0.492 g
same,"Organ weight, Adrenals",[7],0.0514 g
same,"Organ weight, Brain",[7],1.75 g
same,"Organ weight, Epididymides",[7],0.952 g
same,"Organ weight, Heart",[7],1.17 g
same,"Organ weight, Kidneys",[7],2.15 g
same,"Organ weight, Pituitary",[7],0.0088 g
same,"Organ weight, Seminal vesicles",[7],0.983 g
same,"Organ weight, Spleen",[7],0.828 g
same,"Organ weight, Testis L",[7],1.92 g
same,"Organ weight, Testis R",[7],1.88 g
same,"Organ weight, Thymus",[7],0.594 g
same,"Organ weight, Thyroid gland",[7],0.0221 g
same,"Organ weight, Ventral prostate",[7],0.451 g
same,"Organ weight, Adrenals",[8],0.0665 g
same,"Organ weight, Brain",[8],1.72 g
same,"Organ weight, Epididymides",[8],1.030 g
same,"Organ weight, Heart",[8],1.31 g
same,"Organ weight, Kidneys",[8],2.09 g
same,"Organ weight, Pituitary",[8],0.0098 g
same,"Organ weight, Seminal vesicles",[8],0.966 g
same,"Organ weight, Spleen",[8],0.876 g
same,"Organ weight, Testis L",[8],1.79 g
same,"Organ weight, Testis R",[8],1.78 g
same,"Organ weight, Thymus",[8],0.764 g
same,"Organ weight, Thyroid gland",[8],0.0227 g
same,"Organ weight, Ventral prostate",[8],0.518 g
same,"Organ weight, Adrenals",[9],0.0513 g
same,"Organ weight, Brain",[9],1.70 g
same,"Organ weight, Epididymides",[9],0.992 g
same,"Organ weight, Heart",[9],1.20 g
same,"Organ weight, Kidneys",[9],2.13 g
same,"Organ weight, Pituitary",[9],0.0107 g
same,"Organ weight, Seminal vesicles",[9],1.015 g
same,"Organ weight, Spleen",[9],0.826 g
same,"Organ weight, Testis L",[9],1.88 g
same,"Organ weight, Testis R",[9],1.88 g
same,"Organ weight, Thymus",[9],0.770 g
same,"Organ weight, Thyroid gland",[9],0.0236 g
same,"Organ weight, Ventral prostate",[9],0.521 g
same,"Organ weight, Adrenals",[10],0.0407 g
same,"Organ weight, Brain",[10],1.74 g
same,"Organ weight, Epididymides",[10],0.966 g
same,"Organ weight, Heart",[10],1.23 g
same,"Organ weight, Kidneys",[10],2.11 g
same,"Organ weight, Pituitary",[10],0.0098 g
same,"Organ weight, Seminal vesicles",[10],1.038 g
same,"Organ weight, Spleen",[10],0.858 g
same,"Organ weight, Testis L",[10],1.87 g
same,"Organ weight, Testis R",[10],1.85 g
same,"Organ weight, Thymus",[10],0.690 g
same,"Organ weight, Thyroid gland",[10],0.0266 g
same,"Organ weight, Ventral prostate",[10],0.536 g
same,"Organ weight, Adrenals",[11],0.0450 g
same,"Organ weight, Brain",[11],1.71 g
same,"Organ weight, Epididymides",[11],0.974 g
same,"Organ weight, Heart",[11],1.12 g
same,"Organ weight, Kidneys",[11],2.18 g
same,"Organ weight, Pituitary",[11],0.0115 g
same,"Organ weight, Seminal vesicles",[11],1.210 g
same,"Organ weight, Spleen",[11],0.858 g
same,"Organ weight, Testis L",[11],1.89 g
same,"Organ weight, Testis R",[11],1.85 g
same,"Organ weight, Thymus",[11],0.686 g
same,"Organ weight, Thyroid gland",[11],0.0294 g
same,"Organ weight, Ventral prostate",[11],0.566 g
same,"Organ weight, Adrenals",[12],0.0463 g
same,"Organ weight, Brain",[12],1.68 g
same,"Organ weight, Epididymides",[12],0.952 g
same,"Organ weight, Heart",[12],1.16 g
same,"Organ weight, Kidneys",[12],2.03 g
same,"Organ weight, Pituitary",[12],0.0089 g
same,"Organ weight, Seminal vesicles",[12],0.947 g
same,"Organ weight, Spleen",[12],0.800 g
same,"Organ weight, Testis L",[12],1.84 g
same,"Organ weight, Testis R",[12],1.88 g
same,"Organ weight, Thymus",[12],0.772 g
same,"Organ weight, Ventral prostate",[12],0.461 g
same,Thymus weight,"rat, in vivo",not decreased
